Experimental data published in US20260226060A1, “SALTS AND CRYSTALLINE FORMS OF COMPOUND A, METHODS OF PREPARATION, AND USES THEREOF” (SHENZHEN NEWDEL BIOTECH CO., LTD., priority 2023, published 2026).

Experiments:
Assay type in all cases: physicochemical
[1] = Short-term physical stability of anhydrous crystal forms (40° C./75% RH, open, 1 day; XRPD)
Excerpt: In addition to the mesylate crystalline form I, the other anhydrous crystalline forms were stable under high humidity conditions.

[2] = IC analysis of residual solid of phosphate crystalline form I (PO4 content, dissociation)
Experimental: IC analysis of the salts was performed by using a Thermo ICS-6000 instrument.

[3] = Dynamic vapor sorption (DVS) hygroscopicity
Experimental: The water vapor sorption/desorption data of the samples were collected on a dynamic vapor sorption instrument (proUmid GmbH & Co. KG, Germany). Approximately 50-70 mg of sample was placed in a sample pan previously tared and the weight of the sample was measured accurately.

[4] = Solid state stability at 60° C. (closed) and 40° C./75% RH (open), XRPD and HPLC purity
Experimental: (closed) and 40° C./75 RH (open) for 14 days, XRPD analysis and purity analysis were performed at various points of time, and solid-state stability was evaluated.
(§1) HPLC analysis was performed by using an Agilent HPLC 1260 series instrument and the HPLC methods used for solubility and stability determinations were shown in Tables 33 and 34, respectively.

[5] = Solubility analysis in biological solvents (SGF, FaSSIF, FeSSIF) and water, with pH and XRPD of residual solid; conditions: for Solubility: 37° C.
Experimental: as §1

Structure (SMILES): Cc1c(C#Cc2cnc3ccc(N4CCC(O)CC4)nn23)cccc1C(=O)Nc1cc(Cl)cc(C(F)(F)F)c1 [Phosphate crystalline form I]
- XPRD Results after short-term physical stability [1]: unchanged
- dissociation of salt in solubility media (IC of residual solids) ([2]; FaSSIF and FeSSIF): dissociated to free base
- Dissociation degree ([2]; FaSSIF, 0.5 h): 91%
- PO4^3− in residual solid ([2]; FaSSIF, 0.5 h): 0.1 eq.
- XPRD Results Dry sample of residual solid ([2]; FaSSIF, 0.5 h): Amorphous
- XPRD Results Wet sample of residual solid ([2]; FaSSIF, 0.5 h): Form 1
- Dissociation degree ([2]; FaSSIF, 2 h): 97%
- PO4^3− in residual solid ([2]; FaSSIF, 2 h): 0.03 eq.
- XPRD Results Dry sample of residual solid ([2]; FaSSIF, 2 h): Amorphous
- XPRD Results Wet sample of residual solid ([2]; FaSSIF, 2 h): Form 1
- Dissociation degree ([2]; FaSSIF, 24 h): >99%
- PO4^3− in residual solid ([2]; FaSSIF, 24 h): <0.006 eq.
- XPRD Results Dry sample of residual solid ([2]; FaSSIF, 24 h): Form 3
- XPRD Results Wet sample of residual solid ([2]; FaSSIF, 24 h): Form 2
- Dissociation degree ([2]; FeSSIF, 0.5 h): >99%
- PO4^3− in residual solid ([2]; FeSSIF, 0.5 h): <0.006 eq.
- XPRD Results Dry sample of residual solid ([2]; FeSSIF, 0.5 h): Amorphous
- XPRD Results Wet sample of residual solid ([2]; FeSSIF, 0.5 h): Form 1
- Dissociation degree ([2]; FeSSIF, 24 h): 100%
- PO4^3− in residual solid ([2]; FeSSIF, 24 h): 0 eq.
- XPRD Results Dry sample of residual solid ([2]; FeSSIF, 24 h): Amorphous
- XPRD Results Wet sample of residual solid ([2]; FeSSIF, 24 h): Form 1
- crystalline form after DVS analysis (XRPD) [3]: remained unchanged
- hygroscopicity (DVS) [3]: slightly hygroscopic
- DVS The weight gains by vapor sorption % ([3]; 80% RH): 1.3%
- DVS The weight gains by vapor sorption % ([3]; 90% RH): 1.6%
- DVS The weight gains by vapor sorption % ([3]; 90% RH, listed as phosphate crystalline form I): ~1.6%
- Purity in stability evaluation ([4]; 0 d): 98.78 Area %
- Solid state stability-14 days ([4]; 60° C./Closed and 40° C./75% RH (Open), 14 days): physically and chemically stable
- Purity in stability evaluation ([4]; 7 d-40° C./75% RH): 98.78 Area %
- XRPD in stability evaluation ([4]; 7 d-40° C./75% RH): unchanged
- Purity in stability evaluation ([4]; 7 d-60° C./capped): 98.78 Area %
- XRPD in stability evaluation ([4]; 7 d-60° C./capped): unchanged
- Purity in stability evaluation ([4]; 14 d-40° C./75% RH): 98.78 Area %
- XRPD in stability evaluation ([4]; 14 d-40° C./75% RH): unchanged
- Purity in stability evaluation ([4]; 14 d-60° C./capped): 98.78 Area %
- XRPD in stability evaluation ([4]; 14 d-60° C./capped): unchanged
- pH in solubility analysis ([5]; FaSSIF (medium pH 6.5), 0.5 h): 5.7
- pH in solubility analysis ([5]; FaSSIF (medium pH 6.5), 2 h): 5.5
- pH in solubility analysis ([5]; FaSSIF (medium pH 6.5), 24 h): 5.5
- solubility at 24 h ([5]; FaSSIF, 37 °C, pH 6.5, fassif, thermodynamic from solid, 24 h, target 5 mg/mL): 22 µg/mL
- XRPD of residual solid in solubility analysis ([5]; FaSSIF, 0.5 h): Form 1
- Solubility ([5]; FaSSIF, 0.5 h, target 5 mg/mL): 57 µg/mL
- Solubility ([5]; FaSSIF, 0.5 h, target 5 mg/mL, listed as phosphate crystalline form I): 57 µg/mL
- XRPD of residual solid in solubility analysis ([5]; FaSSIF, 0.5 h, listed as phosphate crystalline form I): Newform 1
- Solubility ([5]; FaSSIF, 2 h, target 5 mg/mL): 48 µg/mL
- Solubility ([5]; FaSSIF, 2 h, target 5 mg/mL, listed as phosphate crystalline form I): 48 µg/mL
- XRPD of residual solid in solubility analysis ([5]; FaSSIF, 24 h): Form 2
- XRPD of residual solid in solubility analysis ([5]; FaSSIF, 24 h, listed as phosphate crystalline form I): new form 2
- pH in solubility analysis ([5]; FeSSIF (medium pH 5.0), 0.5 h): 4.9
- pH in solubility analysis ([5]; FeSSIF (medium pH 5.0), 2 h): 4.9
- pH in solubility analysis ([5]; FeSSIF (medium pH 5.0), 24 h): 5.0
- XRPD of residual solid in solubility analysis ([5]; FeSSIF, 0.5 h): Form 1
- Solubility ([5]; FeSSIF, 0.5 h, target 5 mg/mL): 1029 µg/mL
- Solubility ([5]; FeSSIF, 0.5 h, target 5 mg/mL, listed as phosphate crystalline form I): 1029 µg/mL
- XRPD of residual solid in solubility analysis ([5]; FeSSIF, 0.5 h, listed as phosphate crystalline form I): Newform 1
- Solubility ([5]; FeSSIF, 2 h, target 5 mg/mL): 1175 µg/mL
- Solubility ([5]; FeSSIF, 2 h, target 5 mg/mL, listed as phosphate crystalline form I): 1175 µg/mL
- XRPD of residual solid in solubility analysis ([5]; FeSSIF, 24 h): Form 1
- Solubility ([5]; FeSSIF, 24 h, target 5 mg/mL): 1948 µg/mL
- Solubility ([5]; FeSSIF, 24 h, target 5 mg/mL, listed as phosphate crystalline form I): 1948 µg/mL
- pH in solubility analysis ([5]; SGF (medium pH 1.2), 0.5 h): 1.2
- pH in solubility analysis ([5]; SGF (medium pH 1.2), 2 h): 1.4
- pH in solubility analysis ([5]; SGF (medium pH 1.2), 24 h): 1.2
- Solubility ([5]; SGF, 0.5 h, target 5 mg/mL): <LOD
- Solubility ([5]; SGF, 0.5 h, target 5 mg/mL, listed as phosphate crystalline form I): <LOD/<LOD/
- Solubility ([5]; SGF, 2 h, target 5 mg/mL): <LOD
- Solubility ([5]; SGF, 2 h, target 5 mg/mL, listed as phosphate crystalline form I): <LOD/<LOD/
- XRPD of residual solid in solubility analysis ([5]; SGF, 24 h): amorphous
- Solubility ([5]; SGF, 24 h, target 5 mg/mL): <LOD
- XRPD of residual solid in solubility analysis ([5]; SGF, after 2 h): amorphous
- pH in solubility analysis ([5]; water (medium pH 6.6), 0.5 h): 2.8
- pH in solubility analysis ([5]; water (medium pH 6.6), 2 h): 2.7
- pH in solubility analysis ([5]; water (medium pH 6.6), 24 h): 2.6
- Solubility ([5]; water, 0.5 h, target 5 mg/mL): <LOD
- Solubility ([5]; water, 0.5 h, target 5 mg/mL, listed as phosphate crystalline form I): <LOD/<LOD/
- Solubility ([5]; water, 2 h, target 5 mg/mL): <LOD
- Solubility ([5]; water, 2 h, target 5 mg/mL, listed as phosphate crystalline form I): <LOD/<LOD/
- Solubility ([5]; water, 24 h, target 5 mg/mL): <LOD
- XRPD pattern of the residual solid in water ([5]; water, time not stated): an additional peak at 160 (20)
